In patent US20250034127A1, “AUTOPHAGY INDUCING COMPOUNDS AND USES THEREOF, IN PARTICULAR FOR DISEASES OF THE CNS” (Samsara Therapeutics Inc., priority 2021, published 2025):

Test system: primary spinal cord lower motor neurons (MNs) from SOD1 G93A Tg rats
Experiment: Cellular model of Amyotrophic Lateral Sclerosis (glutamate injury)
Type: cell-based, rat
Experimental: Compounds 157 (particularly) preferred), 185 and 196 were selected example compounds if this invention to evaluate in this model. This model (run by Neuro-Sys SAS, France) evaluates the protective effects of test compounds on primary spinal cord lower motor neurons (MNs) from SOD1 G93A Tg rats, after a glutamate injury. The MNs are pre-treated with the test compounds for 1 hour prior to exposure to glutamate, and readouts are measured 24 hours later. This model functions as an in vitro model of Amyotrophic Lateral Sclerosis. […] Any substances which can attenuate one or more of these effects can be considered to have protective effects in the model and may be useful as a new therapeutic agent for the treatment or prevention of ALS.
Genotyping of SOD1 Tg embryos: Pregnant female rat SODIG93A (Sprague Dawley, Taconic), of 14 days of gestation were obtained fromTaconic Bioscience. On the day of the dissection (from pregnant females at 14 days of gestation), a piece of each embryo brain (˜3 mm) was placed in a 2 mL tube free DNase with a new scalpel. The DNA was extracted with the SYBR Green Extract-N-Amp tissue PCR kit (Sigma Aldrich). Briefly, 120 μL of extraction solution was put on each piece of embryo heads. Then, they were incubated for 10 min at room temperature. At the end of this incubation period, the heads were incubated for 5 min at 95° C. Immediately after this last incubation, 100 μL of neutralizing solution was added; each DNA extract was diluted at 1/40 and stored at +4° C. until use. SOD1G93A gene was determined using genomic fragment with human SOD1 primers (5′-[…]-3′ (SEQ ID NO: 1); 5′-[…]-3′ (SEQ ID NO: 2)). The SOD1 primers were diluted at 3 μM in sterile ultrapure water. Briefly, a mix for PCR was prepared with ultrapure water (4 μL per sample), primer at 3 μM (2 μL per sample) and Master Mix (10 μL per sample). In a PCR 96 wells plate, 16 μL of PCR mix was added in each well. 4 μL of each diluted DNA was added according to a plan deposit. The RT-PCR was ran using the CFX96 Biorad RT-PCR system, using the following program: Initial denaturation (95° C., 20 sec)/45 cycles (95° C., 10 sec; 65° C., 10 sec; 72° C., 30 sec)/Melt curve (95° C., 15 sec; 64° C., 1 min; 90° C., 30 sec; 60° C. 15 sec). The amplification plots and melt curves were analyzed with the Biorad software. The results for each sample were compared to negative control (ultrapure water) and to the positive control (DNA from Tg embryos).
Rat spinal cord motor neurons (MNs) were be cultured as described by Wang et al. 2013 and Boussicault et al., 2020. Briefly, pregnant female rats of 14 days gestation (Sprague Dawley; Taconic) were killed using a deep anesthesia with CO2 chamber and a cervical dislocation. Then, fetuses were removed from the uterus and immediately placed in ice-cold L15 Leibovitz medium with a 2% penicillin (10,000 U/ml) and streptomycin (10 mg/ml) solution (PS) and 1% bovine serum albumin (BSA).
Spinal cords were treated for 20 min at 37° C. with a trypsin-EDTA solution at a final concentration of 0.05% trypsin and 0.02% EDTA. The dissociation was stopped by addition of Dulbecco's modified Eagle's medium (DMEM) with 4.5 g/liter of glucose, containing DNAse I grade II (final concentration 0.5 mg/mL) and 10% fetal calf serum (FCS). Cells were mechanically dissociated by three forced passages through the tip of a 10-ml pipette. Cells were then centrifuged at 515×g for 10 min at 4° C. The supernatant was discarded, and the pellet was resuspended in a defined culture medium consisting of Neurobasal medium with a 2% solution of B27 supplement, 2 mmol/liter of L-glutamine, 2% of PS solution, and 10 ng/ml of brain-derived neurotrophic factor (BDNF). Viable cells were counted in a Neubauer cytometer, using the trypan blue exclusion test. The cells were seeded at a density of 20,000 per well in 96-well plates precoated with poly-L-lysine and will be cultured at 37° C. in an air (95%)—CO2 (5%) incubator. […]

CCN1CCC(N(C)C(=O)c2csc(-c3cnn(-c4ccccc4)c3)n2)CC1 [Compound 196, N-(1-ethylpiperidin-4-yl)-N-methyl-2-(1-phenyl-1H-pyrazol-4-yl)-1,3-thiazole-4-carboxamide]
effects in the in vitro model of ALS: positive effects
abnormal TDP43 accumulation in the cytoplasm resulting from glutamate injury (0.5 μM, 1 μM and 10 μM): fully abolished
increase in neurite network length (10 μM, compared to glutamate injury alone): 16%
increase in number of motor neurons (1 and 10 μM, compared to glutamate injury alone): > 10%
